Test results: patent US10562893B2, “Benzimidazoles derivatives as Tec kinases family inhibitors” (GB005, Inc., priority 2015, dated 2020)

Columns and labels:
[1] = system: Jurkat human acute T cell leukemia cells; assay: Jurkat IL-2 release assay; format: cell-based; conditions: IL-2 release from Jurkat cells stimulated with anti-CD3 and anti-CD28, 48 hours, ELISA
Procedure, shortened: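 Jurkat cells were pre-treated with compound curves 30 min at 37°C, then stimulated on plate-bound anti-CD3 (coated at 10 μg/mL) plus 1 μg/mL soluble anti-CD28 for 48 h. IL-2 in supernatant quantified by ELISA; EC50 from dose-response against vehicle-treated controls.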

Human PBMCs = assay: CD3/CD28 mediated PBMC proliferation assay; format: cell-based; conditions: proliferation of human PBMCs stimulated with anti-CD3 and anti-CD28, 72 hours, Cell Titer-Glo
Procedure, shortened: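 PBMCs pre-treated 30 min with compound, then stimulated on plate-bound anti-CD3 (coated at 5 μg/mL) plus soluble anti-CD28 (2 μg/mL final) for 72 h at 37 °C. Proliferation measured as ATP by CellTiter-Glo; EC50 versus vehicle controls from dose-response curves.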

ITK = ITK (Homo sapiens (Human), UniProt Q08881); assay: ITK kinase inhibition assay; format: biochemical; conditions: micro-fluidic detection, 3 hours at 25° C.
Chain of ITK (Q08881 whole entry): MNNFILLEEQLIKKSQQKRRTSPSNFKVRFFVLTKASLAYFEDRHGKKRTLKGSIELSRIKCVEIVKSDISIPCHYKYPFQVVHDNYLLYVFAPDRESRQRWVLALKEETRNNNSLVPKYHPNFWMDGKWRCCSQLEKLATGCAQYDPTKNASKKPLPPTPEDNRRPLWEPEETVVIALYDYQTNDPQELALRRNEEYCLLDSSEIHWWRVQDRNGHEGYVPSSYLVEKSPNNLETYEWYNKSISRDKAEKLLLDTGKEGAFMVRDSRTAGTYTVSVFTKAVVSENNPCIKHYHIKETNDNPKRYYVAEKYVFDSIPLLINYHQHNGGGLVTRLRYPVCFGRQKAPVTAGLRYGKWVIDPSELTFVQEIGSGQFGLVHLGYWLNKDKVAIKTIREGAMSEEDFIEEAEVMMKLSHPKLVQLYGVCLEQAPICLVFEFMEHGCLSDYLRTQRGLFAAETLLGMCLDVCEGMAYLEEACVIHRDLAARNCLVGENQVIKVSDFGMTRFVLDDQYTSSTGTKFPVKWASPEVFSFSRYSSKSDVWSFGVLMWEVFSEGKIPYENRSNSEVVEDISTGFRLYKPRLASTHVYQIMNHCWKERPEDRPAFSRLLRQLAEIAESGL
Description: The in vitro kinase assays were performed at Nanosyn utilizing micro-fluidic detection technology. The test compounds were serially pre-diluted in DMSO and added, by the acoustic dispensing (Labcyte® 550), directly to 384 well assay plates into 10 uL of a buffer with enzyme comprising: 100 mM HEPES, pH7.5, 5 mM MgCl2, 0.1% bovine serum albumin, 1 mM DTT, 0.01% Triton X-100 and the enzyme. Final DMSO concentration was maintained at 1% in all samples, including the controls. The reactions were initiated by addition of ATP (to the specified concentration) and the fluorescently labeled peptide substrate to a final concentration of 1 uM, and incubated for 3 hours at 25° C. Following incubation, the reactions were quenched by addition of 40 μL of termination buffer (100 mM HEPES, pH7.5, 0.01% Triton X-100, 50 mM EDTA). Terminated plates were analyzed using Caliper LabChip® 3000 microfluidic electrophoresis instrument (Caliper Life Sciences/Perkin Elmer). The enzymatic modification of the peptide substrate (phosphorylation) results in a change of net charge enabling electrophoretic separation of product from substrate. As substrate and product are separated by electrophoresis, two peaks of fluorescence are observed. Change in the relative fluorescence intensity of the substrate and product peaks was the parameter measured, reflecting enzyme activity. In the presence of inhibitor, the ratio between product and substrate is altered: signal of the product decreases, while the signal of the substrate increases. Activity in each test sample was determined as the product to sum ratio (PSR):P/(S+P), where P is the peak height of the product and S is the peak height of the FAM-cAMP substrate. For each compound, enzyme activity was measured at 12 concentrations spaced by 3× dilution intervals. Negative control samples (0%-inhibition in the absence of inhibitor, DMSO only) and positive control samples (100%-inhibition, in the absence of enzyme or in the presence of control inhibitor) were assembled in replicates of four and were used to calculate %-inhibition values in the presence of compounds. Percent inhibition (Pinh) was determined using the following equation: Pinh=(PSR0%−PSRinh)/(PSR0%−PSR100%)*100, where PSRinh is the product sum ratio in the presence of inhibitor, PSR0% is the product sum ratio in the absence of inhibitor and PSR100% is the product sum ratio in 100%-inhibition control samples. To determine IC50 values, the inhibition curves (Pinh versus inhibitor concentration) were fitted by 4 parameter sigmoid dose-response model using XLfit software (IDBS).

Row | SMILES | EC50 [1] [nM] | EC50 (Human PBMCs) [nM] | EC50 (ITK) [nM]
1 | C=CC(=O)Nc1cccc(-n2c(NC(=O)c3ccc(C(F)F)s3)nc3cc(CN[C@@H](C)C(C)(C)C)ccc32)c1 [Compound 2] | < 10 | 10 to 100 | < 10
2 | C=CC(=O)Nc1cccc(-n2c(NC(=O)c3ccno3)nc3cc(CN[C@@H](C)C(C)(C)C)ccc32)c1 [Compound 38] | < 10 | 10 to 100 | < 10
3 | C=CC(=O)Nc1cccc(-n2c(NC(=O)c3ccc(-c4cnco4)s3)nc3cc(CN[C@@H](C)C(C)(C)C)ccc32)c1 [Compound 25] | < 10 | < 10 | < 10
4 | C=CC(=O)Nc1cccc(-n2c(NC(=O)c3cccc(C#N)c3)nc3cc(CN[C@@H](C)C(C)(C)C)ccc32)c1 [Compound 9] | 10 to 100 | 10 to 100 | < 10
5 | C=CC(=O)Nc1cccc(-n2c(NC(=O)c3ccnn3C)nc3cc(CN[C@@H](C)C(C)(C)C)ccc32)c1 [Compound 28] | < 10 | 10 to 100 | < 10
